These results are taken from EP0868915A1, “An anti-spasmodic and antiinflammatory composition containing a NSAID, pentifenone and fenpiverinium” (PANACEA BIOTEC LIMITED, priority 1997, dated 1998).

Where a name gives a salt, the structure may show the parent alone. Read-outs that look alike come from different tables or passages of the source.

For this test, the system named is distal portion of colon of rat. Description: Inhibition of acetylcholine-induced contraction of isolated rat colon (antispasmodic activity). Particulars: for inhibition at 0.01 µg/mL: Pitofenone Hcl dose 10 ng/ml; for inhibition at 0.02 µg/mL: Pitofenone Hcl dose 20 ng/ml; for inhibition at 0.04 µg/mL: Pitofenone Hcl dose 40 ng/ml; for inhibition at 0.08 µg/mL: Pitofenone Hcl dose 80 ng/ml; for Percentage inhibition of Ach (100 ng/ml) -Induced contraction After Diclofenac Na: in presence of Diclofenac Sodium 20µ/ml. The protocol: In order to see the effect of NSAID on the Antispasmodic activity of Pitifenone hydrochloride and Fenpiverinium bromide an experiment was conducted on standard isolated tissues of experimental animal. The tissue chosen for the experiment was the distal portion of colon of rat. The NSAID selected for the experiment was Diclofenac Sodium.
The percentage inhibition of Acetylcholine - induced contraction (at dosage level of 100ng/m) was studied with varied concentration of Pitofenone Hydrochloride in the dose range of 10-80 nano gm/ml.
The percentage inhibition of Acetylcholine -induced contraction (at dosage level of 100ng/ml) was studied with varied concentration of Fenpiverinium bromide in the dose range of 0.5-2 ng/ml.
The experiment was then conducted at the same dose level of Acetylcholine and Fenpiverinium bromide but in the presence of Diclofenac Sodium (dose level 20µ gm/ml). The data obtained in the experiment is collected in Table -2.

The mark [1] stands for this setting: in presence of Diclofenac Sodium 20 µg/ml, read-out: Percentage inhibition of Ach (100 ng/ml) -induced contraction After Diclofenac Na.
The mark [2] stands for this setting: read-out: Percentage inhibition of Ach (100 ng/ml) -induced contraction Before Diclofenac Na.
Setting [3] is: Fenpiverinium Bromide dose 0.5 (ng/ml).
[4] abbreviates: Fenpiverinium Bromide dose 1.0 (ng/ml).
Setting [5] is: Fenpiverinium Bromide dose 2.0 (ng/ml).

With `COC(=O)c1ccccc1C(=O)c1ccc(OCCN2CCCCC2)cc1` [Pitofenone Hcl, Pitofenone Hydrochloride], under setting [1], the inhibition at 0.01 µg/mL is 100%, the inhibition at 0.02 µg/mL was determined as 100%, the inhibition at 0.04 µg/mL was 100% and the inhibition at 0.08 µg/mL is 100%. Under setting [2], the inhibition at 0.01 µg/mL was determined as 0%, the inhibition at 0.02 µg/mL was found to be 0%, the inhibition at 0.04 µg/mL came out at 0% and the inhibition at 0.08 µg/mL turned out to be 20.2%.

For `O=C(O)Cc1ccccc1Nc1c(Cl)cccc1Cl` [Diclofenac, Diclofenac Sodium], where the note is “Diclofenac Sodium 20 µg/ml”, the “action with Fenpiverinium bromide as an Antispasmodic” value is “synergistic (potentiating) action” and the “action with Pitofenone Hydrochloride as an Antispasmodic” value is “synergistic (potentiating) action”.

Regarding `C[N+]1(CCC(C(N)=O)(c2ccccc2)c2ccccc2)CCCCC1` [Fenpiverinium Bromide, Fenpiverinium bromide], the “Percentage inhibition of Ach (100 ng/ml) -Induced contraction Before Diclofenac Na” value is listed as 43.8% under setting [3], 78.7% under setting [4] and 100% under setting [5]. The “Percentage inhibition of Ach (100 ng/ml) -Induced contraction After Diclofenac Na” value under setting [3] is listed as 100%, the “Percentage inhibition of Ach (100 ng/ml) -Induced contraction After Diclofenac Na” value under setting [4] amounted to 100% and the “Percentage inhibition of Ach (100 ng/ml) -Induced contraction After Diclofenac Na” value under setting [5] was 100%.
